Source: patent US4965261A, “Substituted benzoxazinorifamycin derivative and antibacterial agent containing the same” (Kanegafuchi Kagaku Kogyo Kabushiki Kaisha, priority 1988, dated 1990)
In brackets after ≈: the same amount, converted by molar mass.

Legend:
[1] = system: Mycobacterium tuberculosis H37 Rv; test: Repeated treatment test of mice infected with tuberculosis, survival on fortieth day (groups of 10 mice); settings: oral, 200 μg/mouse
[2] = Plasma concentration after oral administration to mice, bioassay with Micrococcus luteus IFO 12708; format: in vivo, ddY male mice; settings: mouse, 20 mg/kg
Description: The derivatives No. 4 and No. 11 shown in Table 1 were orally administered to ddY male mice (7 weeks), respectively, in a dose of 20 mg/kg. The concentration of the test compound in the plasma was measured by a bioassay method employing Micrococcus luteus IFO 12708 as an assay bacterium according to a usual manner. The results are as follows: As for the derivative No. 4, the concentrations in the plasma after 1 hour, 3 hours, 5 hours and 8 hours from the administration were 17.0 μg/ml, 13.3 μg/ml, 14.5 μg/ml, 4.2 μg/ml, respectively. As for the derivative No. 11, the concentrations in the plasma after 1 hour, 3 hours, 5 hours and 8 hours from the administration were 17.3 μg/ml, 16.2 μg/ml, 13.8 μg/ml and 10.1 μg/ml, respectively.

[3] = system: Micrococcus luteus IFO 12708; test: Antibacterial activity, standard method of Japan Society of Chemotherapy (Table 2); format: cell-based; settings: IFO12708, read-out: Minimal inhibitory concentration
Text: (§1) Derivative No. in Table 2 corresponds to derivative No. in Table 1.

[4] = system: Bacillus subtilis IFO 3134; test: as above; format: cell-based; settings: IFO3134, read-out: Minimal inhibitory concentration
Text: as §1

[5] = system: Escherichia coli IFO 12734; test: as above; format: cell-based; settings: IFO12734, read-out: Minimal inhibitory concentration
Text: as §1

[6] = system: Staphylococcus aureus IFO 12732; test: as above; format: cell-based; settings: IFO12732, read-out: Minimal inhibitory concentration
Text: as §1

[7] = system: Mycobacterium smegmatis ATCC 607; test: as above; format: cell-based; settings: Mycolicibacterium smegmatis, ATCC607, read-out: Minimal inhibitory concentration
Text: as §1

[8] = system: Klebsiella pneumoniae IFO 3512; test: as above; format: cell-based; settings: IFO3512, read-out: Minimal inhibitory concentration
Text: as §1

[9] = system: Mycobacterium tuberculosis H37 Rv; test: Antibacterial activity against a tubercle bacillus, two-fold dilution in Kirchner liquid medium; settings: Table 3; Kirchner medium with 10% bovine serum, 37° C., 4 weeks
[10] = system: Mycobacterium tuberculosis H37 Rv; test: Therapeutic effect on mice experimentally infected with tuberculosis (FIG. 1, groups of 20 mice); settings: oral, 200 μg/mouse, once a day, six days a week
Description: In FIG. 1, the point, a, means the time that mice were infected, and the point, b, means the time that the treatment started.

SMILES: CCOc1c(N2CCCC2)ccc2nc3c4c5c6c(C)c(O)c4c(=O)c(c-3oc12)NC(=O)C(C)=CC=CC(C)C(O)C(C)C(O)C(C)C(OC(C)=O)C(C)C(OC)C=COC(C)(O6)C5=O (centres unmarked) [Derivative No. 4]
- Survival rate [1]: 100%
- dead mice [1]: there was not observed any dead mouse
- concentration at 1 h ([2]; 1 hour): 17000 ng/mL
- concentration at 3 h ([2]; 3 hours): 13300 ng/mL
- concentration at 5 h ([2]; 5 hours): 14500 ng/mL
- concentration at 8 h ([2]; 8 hours): 4200 ng/mL
- MIC [3]: 0.04 µg/mL (≈ 0.0445 µM)
- MIC [4]: 0.04 µg/mL (≈ 0.0445 µM)
- MIC [5]: > 10 µg/mL
- MIC [6]: ≤ 0.02 µg/mL
- MIC [7]: 0.63 µg/mL (≈ 0.702 µM)
- MIC [8]: > 10 µg/mL
- Minimal inhibitory concentration [9]: 0.017 µg/mL (≈ 0.0189 µM)

SMILES: COC1C=COC2(C)Oc3c(C)c(O)c4c(=O)c(c5oc6cc(N7CCCCC7)ccc6nc-5c4c3C2=O)NC(=O)C(C)=CC=CC(C)C(O)C(C)C(O)C(C)C(OC(C)=O)C1C (centres unmarked) [Derivative B]
- therapeutic effect as compared with rifampicin [10]: inferior to rifampicin

SMILES: CCOc1c(N2CCN(CC(C)C)CC2)ccc2nc3c4c5c6c(C)c(O)c4c(=O)c(c-3oc12)NC(=O)C(C)=CC=CC(C)C(O)C(C)C(O)C(C)C(OC(C)=O)C(C)C(OC)C=COC(C)(O6)C5=O (centres unmarked) [Derivative No. 8]
- therapeutic effect as compared with rifampicin and derivative A [10]: excellent therapeutic effect as compared with rifampicin
- MIC [3]: ≤ 0.02 µg/mL
- MIC [4]: ≤ 0.02 µg/mL
- MIC [5]: > 10 µg/mL
- MIC [6]: ≤ 0.02 µg/mL
- MIC [7]: 0.63 µg/mL (≈ 0.65 µM)
- MIC [8]: > 10 µg/mL
- Minimal inhibitory concentration [9]: 0.07 µg/mL (≈ 0.0722 µM)

SMILES: CCc1c(N2CCCC2)ccc2nc3c4c5c6c(C)c(O)c4c(=O)c(c-3oc12)NC(=O)C(C)=CC=CC(C)C(O)C(C)C(O)C(C)C(OC(C)=O)C(C)C(OC)C=COC(C)(O6)C5=O (centres unmarked) [Derivative C]
- therapeutic effect as compared with rifampicin [10]: inferior to rifampicin
